Experimental data taken from patent US20240316047A1, “INHIBITORS OF RNA HELICASE DHX9 AND USES THEREOF” (ACCENT THERAPEUTICS, INC., priority 2022, published 2024).

Target: Human recombinant DHX9 protein (Homo sapiens (Human), UniProt Q08211)
Assay: DHX9 ATPase assay (ADP-Glo)
Format: biochemical
Settings: for IC50: read-out: DHX9 Biochemical Inflection Point

Sequence of Human recombinant DHX9 protein (Q08211 whole entry): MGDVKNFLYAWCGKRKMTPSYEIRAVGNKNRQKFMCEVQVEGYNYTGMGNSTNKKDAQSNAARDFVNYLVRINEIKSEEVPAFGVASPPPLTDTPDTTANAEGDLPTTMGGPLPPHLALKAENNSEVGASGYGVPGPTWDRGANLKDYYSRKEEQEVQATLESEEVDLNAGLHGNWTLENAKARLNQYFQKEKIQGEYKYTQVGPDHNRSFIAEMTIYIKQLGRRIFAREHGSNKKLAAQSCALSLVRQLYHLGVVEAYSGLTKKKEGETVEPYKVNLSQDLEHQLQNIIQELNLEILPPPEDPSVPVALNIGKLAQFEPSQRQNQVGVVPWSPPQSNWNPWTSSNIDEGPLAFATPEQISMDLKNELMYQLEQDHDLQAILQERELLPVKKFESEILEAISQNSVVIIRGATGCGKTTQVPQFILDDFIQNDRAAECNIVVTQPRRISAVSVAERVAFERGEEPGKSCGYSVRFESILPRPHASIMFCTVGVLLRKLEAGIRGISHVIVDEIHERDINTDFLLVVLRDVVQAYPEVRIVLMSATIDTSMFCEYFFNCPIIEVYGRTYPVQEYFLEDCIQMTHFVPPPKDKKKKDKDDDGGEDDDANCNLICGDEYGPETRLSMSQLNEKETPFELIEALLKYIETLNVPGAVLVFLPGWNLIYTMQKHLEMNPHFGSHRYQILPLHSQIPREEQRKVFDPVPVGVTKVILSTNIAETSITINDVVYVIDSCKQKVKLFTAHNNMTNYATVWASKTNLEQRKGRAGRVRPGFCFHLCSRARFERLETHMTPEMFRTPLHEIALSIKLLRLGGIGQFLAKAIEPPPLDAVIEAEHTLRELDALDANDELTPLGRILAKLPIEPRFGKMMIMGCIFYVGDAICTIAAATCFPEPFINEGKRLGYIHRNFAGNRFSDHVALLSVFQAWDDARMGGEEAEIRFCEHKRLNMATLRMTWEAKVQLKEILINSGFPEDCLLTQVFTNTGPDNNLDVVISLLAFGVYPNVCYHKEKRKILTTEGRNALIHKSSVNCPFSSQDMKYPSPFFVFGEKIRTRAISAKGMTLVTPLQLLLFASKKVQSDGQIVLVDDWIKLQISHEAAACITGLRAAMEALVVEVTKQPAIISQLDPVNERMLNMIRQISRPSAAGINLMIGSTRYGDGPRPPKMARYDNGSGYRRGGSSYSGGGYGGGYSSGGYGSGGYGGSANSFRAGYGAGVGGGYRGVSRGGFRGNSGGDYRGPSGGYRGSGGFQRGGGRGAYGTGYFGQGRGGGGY

| SMILES | DHX9 Biochemical Max Inhibition | IC50 [nM] |
| --- | --- | --- |
| CN1CC(Oc2cnc(-c3cc(C(=O)Nc4cc(Cl)cc(NS(C)(=O)=O)c4)cn3CC(F)(F)F)nc2)C1 [Example 613] | 70.3 | 4.2 |
| Cn1cc(C(=O)Nc2cc(Cl)cc(NS(C)(=O)=O)c2)cc1-c1ncc(N2CC3(C2)CC(F)(F)C3)cc1F [Example 702] | 70.8 | 95.5 |
| Cc1sc(C(=O)Nc2cc(Cl)cc(NS(C)(=O)=O)c2)cc1-c1c(F)cc(F)cc1F [Example 378] | 80.9% | 874 |
| Cn1cc(C(=O)Nc2cc(Cl)cc(NS(C)(=O)=O)c2)cc1-c1ccc(N2CCOCC2)cn1 [Example 273] | 71.4% | 6.5 |
| Cc1sc(C(=O)Nc2cc(Cl)cc(NS(C)(=O)=O)c2)cc1-c1ccc(N2CC3(C2)CC(F)(F)C3)cn1 [Example 499] | 68.1 | 35.7 |
| CS(=O)(=O)Nc1cc(Cl)cc(NC(=O)c2cc(-c3ncc(F)cn3)n(CC(F)(F)F)c2)c1 [Example 562] | 62.3 | 64.5 |
| CCS(=O)(=O)Nc1cc(Cl)cc(NC(=O)c2cc(-c3ncc(F)cc3OCc3cncnc3)c(C)s2)c1 [Example 623] | 94.5 | 3.9 |
| CCS(=O)(=O)Nc1cc(Cl)cc(NC(=O)c2cc(-c3ncc(F)cc3OCc3nccs3)c(C)s2)c1 [Example 622] | 62.9 | 23 |
| Cc1sc(C(=O)Nc2cc(Cl)cc(NS(C)(=O)=O)c2)cc1-c1ncc(N2CCC(C(F)(F)F)CC2)cc1F [Example 481] | 62.1 | 204 |
| CS(=O)(=O)Nc1cc(Cl)cc(NC(=O)c2cnn(-c3ccccc3Oc3ncccn3)c2)c1 [Example 263] | 63.8% | 170 |
| Cn1cc(C(=O)Nc2cc(Cl)cc(NS(C)(=O)=O)c2)cc1-c1ncc(N2CC(F)(F)C2)cc1OCc1cnco1 [Example 733] | 61.3 | 21.8 |
| CS(=O)(=O)Nc1cc(Cl)cc(NC(=O)c2cc(-c3ccccc3O)cs2)c1 [Example 106] | 58.7% | 78 |
| CS(=O)(=O)Nc1cc(Cl)cc(NC(=O)c2cc(-c3ncccc3OCc3ccccc3)c(CO)s2)c1 [Example 216] | 78% | 4.4 |
| CC(C)C(=O)N1CCN(c2ccc(-n3cc(C(=O)Nc4cc(Cl)cc(NS(C)(=O)=O)c4)cn3)nc2)CC1 [Example 149, N-(3-chloro-5-(methylsulfonamido)phenyl)-1-(5-(4-isobutyrylpiperazin-1-yl)pyridin-2-yl)-1H-pyrazole-4-carboxamide] | 65.4% | 19.9 |
| CS(=O)(=O)Nc1cc(Cl)cc(NC(=O)c2cc(-c3ncccc3COc3cc(F)cc(F)c3)cs2)c1 [Example 228] | 67.2% | 65.5 |
| CCc1sc(C(=O)Nc2cc(Cl)cc(NS(C)(=O)=O)c2)cc1-c1ncc(F)cc1F [Example 588] | 67.7 | 103 |
| CS(=O)(=O)Nc1cc(Cl)cc(NC(=O)c2cnn(CCCO)c2)c1 [Example 126, N-(3-chloro-5-(methylsulfonamido)phenyl)-1-(3-hydroxypropyl)-1H-pyrazole-4-carboxamide] | 64.5% | 182 |
| Cc1ccc2sc(C(=O)Nc3cc(Cl)cc(NS(C)(=O)=O)c3)cc2c1 [Example 331] | 57.8% | 194 |

| SMILES | DHX9 Biochemical Max Inhibition | IC50 [nM] |
| --- | --- | --- |
| CS(=O)(=O)Nc1cc(Br)cc(NC(=O)c2cnn(-c3cc(C#N)ccn3)c2)c1 [Example 38] | 44.7% | 65.5 |
| CS(=O)(=O)Nc1cc(Cl)cc(NC(=O)c2coc(-c3ccccc3)c2)c1 [Example 125] | 56.7% | 330 |
| CS(=O)(=O)Nc1cc(Cl)cc(NC(=O)c2cnn(-c3ncccc3S(C)(=O)=O)c2)c1 [Example 199] | 73.4% | 84.4 |
| CCS(=O)(=O)Nc1cc(Cl)cc(NC(=O)c2cc(-c3ncccc3C)cs2)c1 [Example 224] | 67.3% | 6.4 |
| CS(=O)(=O)Nc1cc(Cl)cc(NC(=O)c2cc(-c3ccccc3)c(CO)s2)c1 [Example 120, N-(3-chloro-5-(methylsulfonamido)phenyl)-5-(hydroxymethyl)-4-phenylthiophene-2-carboxamide] | 72.5% | 8.9 |
| CS(=O)(=O)Nc1cc(Cl)cc(NC(=O)c2cnn([C@@H]3CCCC[C@H]3O)c2)c1 (relative stereo) [Example 150, N-(3-chloro-5-(methylsulfonamido)phenyl)-1-(trans-2-hydroxycyclohexyl)-1H-pyrazole-4-carboxamide] | 65.9% | – |
| Cc1cc(N2CCC(F)(F)CC2)cnc1-c1cc(C(=O)Nc2cc(Cl)cc(NS(C)(=O)=O)c2)sc1C [Example 602] | 92.4 | 57.8 |
| Cc1sc(C(=O)Nc2cc(Cl)cc(NS(C)(=O)=O)c2)c(F)c1-c1ncc(OC(C)C)cn1 [Example 683] | 62.5 | 1710 |
| CS(=O)(=O)Nc1cc(Cl)cc(NC(=O)c2cc3cnccc3s2)c1 [Example 288] | 58.7% | 132 |
| CS(=O)(=O)Nc1cc(F)cc(NC(=O)c2cc(-c3ccccc3)cs2)c1 [Example 73] | 63% | 189 |
| CS(=O)(=O)Nc1cc(Cl)cc(NC(=O)c2cnn(CCO)c2)c1 [Example 127] | 66.4% | 138 |
| Cc1sc(C(=O)Nc2cc(Cl)cc(NS(C)(=O)=O)c2)cc1-c1ncc(OC(C)(C)C(=O)O)cn1 [Example 670] | 73.4 | 6.2 |
| Cc1sc(C(=O)Nc2cc(Cl)cc(NS(C)(=O)=O)c2)cc1-c1ncc(C(F)(F)F)cc1F [Example 368] | 67.3% | 118 |
| CS(=O)(=O)Nc1cc(Cl)cc(NC(=O)c2cc(CO)n(-c3ncccc3OCc3cncc(F)c3)c2)c1 [Example 723] | 84.3 | 1.6 |
| Cc1sc(C(=O)Nc2cc(Cl)cc(NS(C)(=O)=O)c2)cc1-c1cn(Cc2ccccc2)nn1 [Example 235] | 78.1% | 35.8 |
| CCS(=O)(=O)Nc1cc(Cl)cc(NC(=O)c2cc(-c3ncc(OC(C)C)cn3)c(C)s2)c1 [Example 565] | 60 | 37.1 |
| CS(=O)(=O)Nc1cc(Cl)cc(NC(=O)c2cc(C(=O)Nc3ccccc3)cs2)c1 [Example 166, N2-(3-chloro-5-(methylsulfonamido)phenyl)-N4-phenylthiophene-2,4-dicarboxamide] | 64% | 28.5 |
| CCS(=O)(=O)Nc1cc(Cl)cc(NC(=O)c2cc(-c3ncc(F)cc3Cl)c(C)s2)c1 [Example 355] | 69.9% | 34.1 |

Continued, values first:

| DHX9 Biochemical Max Inhibition | IC50 [nM] | SMILES |
| --- | --- | --- |
| 66.1% | 86.5 | CS(=O)(=O)Nc1cc(Cl)cc(NC(=O)c2cc(C(F)(F)F)n(-c3ccc(N4CCOCC4)cn3)c2)c1 [Example 271] |
| 68.8% | 19.1 | CS(=O)(=O)Nc1cc(Cl)cc(NC(=O)c2cnn(-c3ccc(C4CCOCC4)cn3)c2)c1 [Example 190] |
| 67.8% | 146 | CCn1cc(C(=O)Nc2cc(Cl)cc(NS(C)(=O)=O)c2)cc1-c1ccccc1 [Example 79, N-(3-chloro-5-(methylsulfonamido)phenyl)-1-ethyl-5-phenyl-1H-pyrrole-3-carboxamide] |
| 60.9 | 100 | CS(=O)(=O)Nc1cc(Cl)cc(NC(=O)c2cc(Cl)n(-c3ncc(F)cn3)c2)c1 [Example 709] |
| 72.7 | 9.3 | COCCOc1ccc(-n2cc(C(=O)Nc3cc(Cl)cc(NS(C)(=O)=O)c3)cc2C)nc1 [Example 442] |
| 72.2% | 10.5 | Cc1cc(C(=O)Nc2cc(Cl)cc(NS(C)(=O)=O)c2)cn1-c1ncc(N2CCOCC2)cc1F [Example 320] |
| 67.1 | 145 | CC(C)n1cc(C(=O)Nc2cc(Cl)cc(NS(C)(=O)=O)c2)cc1-c1ncc(F)cn1 [Example 667] |
| 71.2 | 8.1 | Cn1cc(C(=O)Nc2cc(Cl)cc(NS(C)(=O)=O)c2)cc1-c1ccc(N2CC(S(C)(=O)=O)C2)cn1 [Example 519] |
| 71.8 | 40.8 | Cc1cc(C(=O)Nc2cc(Cl)cc(NS(C)(=O)=O)c2)cn1-c1ccc(N2CCC3(CC3)C2)cn1 [Example 522] |
| 61.5% | 24 | CS(=O)(=O)Nc1cc(Cl)cc(NC(=O)c2cnn(-c3ccc(N4CCCC4=O)cn3)c2)c1 [Example 90] |
| 79.1 | 8.7 | COc1cnn(-c2csc(C(=O)Nc3cc(Cl)cc(NS(C)(=O)=O)c3)c2)c1 [Example 435] |
| 76.6 | 59 | Cc1cc(C(=O)Nc2cc(Cl)cc(NS(C)(=O)=O)c2)cn1-c1ccc(C(F)(F)F)cn1 [Example 443] |
| 76 | 25 | Cc1cc(C(=O)Nc2cc(Cl)cc(NS(C)(=O)=O)c2)cn1-c1ncccc1OCC1CC1 [Example 713] |
| 53.6 | 44.4 | COc1ccc(F)c(-c2cc(C(=O)Nc3cc(Cl)cc(NS(C)(=O)=O)c3)cn2C)n1 [Example 703] |
| 64.1% | 2.8 | CCS(=O)(=O)Nc1cc(Cl)cc(NC(=O)c2cc(C)n(-c3ccc(N4CCOCC4)cn3)c2)c1 [Example 249] |
| 78.6 | 18.6 | Cc1cc(N2CC(F)(F)C2)cnc1-n1cc(C(=O)Nc2cc(Cl)cc(NS(C)(=O)=O)c2)cc1C [Example 419] |
| 73 | 29.3 | Cc1cc(C(=O)Nc2cc(Cl)cc(NS(C)(=O)=O)c2)cn1-c1ncc(N2CC(C(F)(F)F)C2)cn1 [Example 694] |
